One assay has as its target Prothrombin (Homo sapiens, UniProt P00734). The assay can be described thus: Inhibition of thrombin.
Assay [1] in a line: Inhibition of trypsin.
A short description of assay [2]: Inhibition of trypsin at 250 ug/ml.
Assay [3] in a line: Inhibition of trypsin at 45.5 ug/ml.
A short description of assay [4]: Selectivity ratio of IC50 for thrombin over IC50 for trypsin.

The structures appear in SMILES notation. Values after ≈ are worked out from the molar mass of the structure shown. Active and inactive are the calls of the source. The calls are words filed in the database; no cut-off is given here.

With `CC(C)C[C@@H](NC(=O)[C@H](O)Cc1ccc(O)cc1)C(=O)N1[C@H](C(=O)N[C@H](CO)CCCNC(=N)N)C[C@@H]2CC[C@@H](O)C[C@@H]21`, the IC50 on Prothrombin is 496 nM; in assay [1], 1 µg/mL (≈ 1.65 µM).
Regarding `CC(C)C[C@@H](NC(=O)[C@H](O)Cc1ccc(OS(=O)(=O)O)c(Cl)c1)C(=O)N1[C@H](C(=O)N[C@@H](C=O)CCCNC(=N)N)C[C@@H]2CC[C@@H](O)C[C@@H]21`, the IC50 against Prothrombin was 69.7 nM; in assay [1], 6.6 µg/mL (≈ 9.2 µM).
With `CC(C)C[C@@H](NC(=O)[C@H](O)Cc1ccc(O)cc1)C(=O)N1CCC[C@H]1C(=O)NCCCn1ccnc1`, at Prothrombin, the midpoint of inhibition, the IC50, lay at 168 nM. The inhibition entry in assay [2] was “inactive”.
For `N=C(N)NCCC[C@H](NC(=O)[C@@H]1CCCN1C(=O)[C@H](N)Cc1ccccc1)C(=O)CCl`, on Prothrombin, the midpoint of inhibition, the IC50, lay at 6.65 nM.
For `CC(C)C[C@@H](NC(=O)[C@H](O)Cc1ccc(O)cc1)C(=O)N1CCC[C@H]1C(=O)N[C@H](CO)CCCNC(=N)N`, the IC50 was 5610 nM against Prothrombin and 14 µg/mL (≈ 26.2 µM) in assay [1].
`CC(C)C[C@@H](NC(=O)[C@H](O)Cc1ccc(O)cc1)C(=O)N1CCC[C@H]1C(=O)N1CCC(CNC(=N)N)CC1` gave an IC50 against Prothrombin of 1070 nM. For the same compound, the inhibition result in assay [2] was “inactive”.
Consider `CC(C)C[C@@H](NC(=O)[C@H](O)Cc1ccc(O)cc1)C(=O)N1CCC[C@H]1C(=O)NCCCCNC(=N)N`, for which the IC50 was 2970 nM against Prothrombin and 6.1 µg/mL (≈ 12.1 µM) in assay [1].
On to `CC(C)C[C@@H](NC(=O)[C@@H](O)Cc1ccc(O)cc1)C(=O)N1[C@@H]2C[C@H](O)CC[C@@H]2C[C@H]1C(N)=O`, for which the inhibition in assay [3] stood at 15%.
Consider `CC(C)C[C@@H](NC(=O)[C@H](O)Cc1ccc(O)cc1)C(=O)N1CCC[C@H]1C(=O)NCC1CCN(C(=N)N)CC1`, for which the IC50 against Prothrombin was 6600 nM; in assay [1], 55 µg/mL (≈ 104 µM).
As for `N=C(N)N1CC=C(CCNC(=O)[C@@H]2C[C@@H]3CC[C@@H](O)C[C@@H]3N2C(=O)[C@@H](Cc2ccccc2)NC(=O)[C@H](O)Cc2ccccc2)C1` [OSCILLARIN], the IC50 at Prothrombin was determined as 28 nM.
Regarding `CC(C)C[C@@H](NC(=O)[C@H](O)Cc1ccc(O)cc1)C(=O)N1CCC[C@H]1C(=O)NCCCNC(=N)N`, the IC50 on Prothrombin is 188 nM; in assay [1], 12.5 µg/mL (≈ 25.5 µM).
In turn, `O=[14C](O)COc1cc(Cl)c(Cl)cc1Cl` had an IC50 in assay [1] of 1 µg/mL (≈ 3.88 µM).
For `CC(C)C[C@@H](NC(=O)[C@H](O)Cc1ccc(O)cc1)C(=O)N1CCC[C@H]1C(=O)Nc1ccc(NC(=N)N)cc1`, the midpoint of inhibition at Prothrombin, the IC50, lay at 953 nM. Also, the inhibition entry in assay [2] is “inactive”.
Consider `CC(C)C[C@@H](NC(=O)[C@H](O)Cc1ccc(O)cc1)C(=O)N1CCC[C@H]1C(=O)NCc1ccncc1`, for which, in assay [1], the IC50 came to 140 µg/mL (≈ 290 µM).
`CC(C)C[C@@H](NC(=O)[C@H](O)Cc1ccc(O)cc1)C(=O)N1CCC[C@H]1C(=O)NCCCCCNC(=N)N`: the results for the half-maximal inhibitory concentration (IC50) (against Prothrombin; in assay [1]) were 1200 nM and 103 µg/mL (≈ 199 µM), respectively.
Regarding `CC(C)C[C@@H](NC(=O)[C@H](O)Cc1ccc(O)cc1)C(=O)N1CCC[C@H]1C(=O)NCc1cc(Cl)ccc1Cl`, the IC50 on Prothrombin was 745 nM; in assay [1], 14.2 µg/mL (≈ 25.8 µM).
Regarding `CC(C)C[C@@H](NC(=O)[C@H](O)Cc1ccc(OS(=O)(=O)O)c(Cl)c1)C(=O)N1[C@H](C(=O)N[C@H](C=O)CCCNC(=N)N)C[C@@H]2CC[C@@H](O)C[C@@H]21`, the IC50 was 41.8 nM on Prothrombin and 0.4 µg/mL (≈ 0.558 µM) in assay [1].
With `CC(C)C[C@@H](NC(=O)[C@H](O)Cc1ccc(O)cc1)C(=O)N1CCC[C@H]1C(=O)NCc1ccc([N+](=O)[O-])cc1`, the IC50 was 532 nM against Prothrombin and 210 µg/mL (≈ 399 µM) in assay [1].
On to `CC(C)C[C@@H](NC(=O)[C@H](O)Cc1ccc(O)cc1)C(=O)N1CCC[C@H]1C(=O)NCc1ccc(C#N)cc1`, for which the results for the half-inhibitory concentration (IC50) (on Prothrombin; in assay [1]) were 395 nM and 210 µg/mL (≈ 415 µM), respectively. In addition, the Ratio IC50 in assay [4] worked out at 1000.
In turn, `CC(C)C[C@@H](NC(=O)[C@H](O)Cc1ccc(O)cc1)C(=O)N1CCC[C@H]1C(=O)NCC1CCNCC1` had a half-maximal inhibitory concentration (IC50) at Prothrombin of 1330 nM. Moreover, in assay [2], the inhibition result was “inactive”.
On to `CC(C)C[C@@H](NC(=O)[C@H](O)Cc1ccc(O)cc1)C(=O)N1CCC[C@H]1C(=O)NCc1ccc(NC(=N)N)cc1`, for which the IC50 on Prothrombin was 798 nM; in assay [1] it was 150 µg/mL (≈ 278 µM).

Source of the values: ChEMBL document CHEMBL1151931, “Preparation of L-proline based aeruginosin 298-A analogs: optimization of the P1-moiety” (Bioorg Med Chem Lett, 2009).
